According to US20180370927A1, “MICROBIOCIDAL OXADIAZOLE DERIVATIVES” (SYNGENTA PARTICIPATIONS AG, priority 2015, published 2018):
Read-outs that look alike come from different tables or passages of the source.

How the values were obtained:
[1] = test system: Puccinia recondita f. Sp. Tritici; test: Puccinia recondita f. sp. tritici / wheat / leaf disc preventative (brown rust); format: in vivo; details: foliar, read-out: disease control compared to untreated control leaf disks
Method: Leaf disks or leaf segments of various plant species are cut from plants grown in a greenhouse. The cut leaf disks or segments are placed in multiwell plates (24-well format) onto water agar. The leaf disks are sprayed with a test solution before (preventative) or after (curative) inoculation. Compounds to be tested are prepared as DMSO solutions (max. 10 mg/mL) which are diluted to the appropriate concentration with 0.025% Tween20 just before spraying. The inoculated leaf disks or segments are incubated under defined conditions (temperature, relative humidity, light, etc.) according to the respective test system. A single evaluation of disease level is carried out 3 to 14 days after inoculation, depending on the pathosystem. Percent disease control relative to the untreated check leaf disks or segments is then calculated.
Example 1: Fungicidal Activity Against Puccinia recondita f. Sp. Tritici/Wheat/Leaf Disc Preventative (Brown Rust)
Wheat leaf segments cv. Kanzler were placed on agar in multiwell plates (24-well format) and sprayed with the formulated test compound diluted in water. The leaf disks were inoculated with a spore suspension of the fungus 1 day after application. The inoculated leaf segments were incubated at 19° C. and 75% relative humidity (rh) under a light regime of 12 hours light/12 hours darkness in a climate cabinet and the activity of a compound was assessed as percent disease control compared to untreated when an appropriate level of disease damage appears in untreated check leaf segments (7 to 9 days after application).
The following compounds at 200 ppm in the applied formulation give at least 80% disease control in this test when compared to untreated control leaf disks under the same conditions, which show extensive disease development.

[2] = test system: Glomerella lacenarium (Colletotrichum lacenarium); test: Glomerella lacenarium (Colletotrichum lacenarium) liquid culture / cucumber / preventative (anthracnose); format: cell-based; details: read-out: disease control (inhibition of growth, photometric) compared to untreated control
Method: Mycelia fragments or conidia suspensions of a fungus prepared either freshly from liquid cultures of the fungus or from cryogenic storage, are directly mixed into nutrient broth. DMSO solutions of the test compound (max. 10 mg/ml) are diluted with 0.025% Tween20 by a factor of 50 and 10 μL of this solution is pipetted into a microtiter plate (96-well format). The nutrient broth containing the fungal spores/mycelia fragments is then added to give an end concentration of the tested compound. The test plates are incubated in the dark at 24° C. and 96% relative humidity. The inhibition of fungal growth is determined photometrically after 2 to 7 days, depending on the pathosystem, and percent antifungal activity relative to the untreated check is calculated.
Example 4: Fungicidal Activity Against Glomerella lacenarium (Colletotrichum lacenarium) Liquid Culture/Cucumber/Preventative (Anthracnose)
Conidia of the fungus from cryogenic storage are directly mixed into nutrient broth (PDB—potato dextrose broth). After placing a (DMSO) solution of test compound into a microtiter plate (96-well format), the nutrient broth containing the fungal spores is added. The test plates are incubated at 24° C. and the inhibition of growth is measured photometrically 3 to 4 days after application.
The following compounds at 20 ppm in the applied formulation give at least 80% disease control in this test when compared to untreated control under the same conditions, which show extensive disease development.

[3] = 200 ppm in the applied formulation, wheat leaf segments, preventative, assessed 7 to 9 days after application
[4] = 20 ppm in the applied formulation, liquid culture in PDB, 24° C., 3 to 4 days after application

## CC(C)CC(=O)C(=O)NCc1c(F)cc(-c2noc(C(F)(F)F)n2)cc1F [Compound 1.69, N-[[2,6-difluoro-4-[5-(trifluoromethyl)-1,2,4-oxadiazol-3-yl]phenyl]methyl]-4-methyl-2-oxo-pentanamide]
[1]; [3]
  pest or weed control at 200 ppm: ≥ 80%
[2]; [4]
  inhibition at 20 ppm: ≥ 80%

## NC(=O)C(=O)N(Cc1ccc(-c2noc(C(F)(F)F)n2)cc1)OCC=C(Cl)Cl [Compound 4.32, N′-(3,3-dichloroallyloxy)-N′-[[4-[5-(trifluoromethyl)-1,2,4-oxadiazol-3-yl]phenyl]methyl] oxamide]
[1]; [3]
  pest or weed control at 200 ppm: ≥ 80%
[2]; [4]
  inhibition at 20 ppm: ≥ 80%

## CC(C)(C)CNC(=O)C(=O)NCc1ccc(-c2noc(C(F)(F)F)n2)cc1 [Compound 4.45, N′-(2,2-dimethylpropyl)-N-[[4-[5-(trifluoromethyl)-1,2,4-oxadiazol-3-yl]phenyl]methyl] oxamide]
[2]; [4]
  inhibition at 20 ppm: ≥ 80%

## CC(C)CNC(=O)C(=O)NCc1ccc(-c2noc(C(F)(F)F)n2)cc1 [Compound 4.50, N′-isobutyl-N-[[4-[5-(trifluoromethyl)-1,2,4-oxadiazol-3-yl]phenyl]methyl] oxamide]
[1]; [3]
  pest or weed control at 200 ppm: ≥ 80%

## CON=C(C(=O)N(Cc1ccc(-c2noc(C(F)(F)F)n2)cc1)OC)c1ccccc1 [Compound 2.4, N-methoxy-2-methoxyimino-2-phenyl-N-[[4-[5-(trifluoromethyl)-1,2,4-oxadiazol-3-yl]phenyl]methyl]acetamide]
[1]; [3]
  pest or weed control at 200 ppm: ≥ 80%
[2]; [4]
  inhibition at 20 ppm: ≥ 80%

## CC(=O)C(=O)N(Cc1ccc(-c2noc(C(F)(F)F)n2)cc1)OCC=C(Cl)Cl [Compound 1.22, N-(3,3-dichloro-allyloxy)-2-oxo-N-[[4-[5-(trifluoromethyl)-1,2,4-oxadiazol-3-yl]phenyl]methyl]propanamide]
[1]; [3]
  pest or weed control at 200 ppm: ≥ 80%
[2]; [4]
  inhibition at 20 ppm: ≥ 80%

## CN(C)C(=O)C(=O)N(Cc1ccc(-c2noc(C(F)(F)F)n2)cc1)OCc1ccc(Cl)cc1 [Compound 4.33, N′-[(4-chlorophenyl)methoxy]-N,N-dimethyl-N′-[[4-[5-(trifluoromethyl)-1,2,4-oxadiazol-3-yl]phenyl]methyl] oxamide]
[2]; [4]
  inhibition at 20 ppm: ≥ 80%

## NC(=O)C(=O)NCc1ccc(-c2noc(C(F)(F)F)n2)c(F)c1 [Compound 4.83, N′-[[3-fluoro-4-[5-(trifluoromethyl)-1,2,4-oxadiazol-3-yl]phenyl]methyl] oxamide]
[2]; [4]
  inhibition at 20 ppm: ≥ 80%

## NC(=O)C(=O)N(Cc1ccc(-c2noc(C(F)(F)F)n2)cc1)OCc1ccc(Cl)cc1 [Compound 4.34, N′-[(4-chlorophenyl)methoxy]-N′-[[4-[5-(trifluoromethyl)-1,2,4-oxadiazol-3-yl]phenyl]methyl] oxamide]
[1]; [3]
  pest or weed control at 200 ppm: ≥ 80%
[2]; [4]
  inhibition at 20 ppm: ≥ 80%

## O=C(NCc1ccccc1)C(=O)NCc1ccc(-c2noc(C(F)(F)F)n2)cc1 [Compound 4.53, N-benzyl-N′-[[4-[5-(trifluoromethyl)-1,2,4-oxadiazol-3-yl]phenyl]methyl] oxamide]
[1]; [3]
  pest or weed control at 200 ppm: ≥ 80%

## CCNC(=O)C(=O)NCc1ccc(-c2noc(C(F)(F)F)n2)cc1 [Compound 4.49, N-ethyl-N′-[[4-[5-(trifluoromethyl)-1,2,4-oxadiazol-3-yl]phenyl]methyl] oxamide]
[1]; [3]
  pest or weed control at 200 ppm: ≥ 80%
[2]; [4]
  inhibition at 20 ppm: ≥ 80%

## NC(=O)C(=O)NCc1ccc(-c2noc(C(F)(F)F)n2)cc1F [Compound 4.82, N′-[[2-fluoro-4-[5-(trifluoromethyl)-1,2,4-oxadiazol-3-yl]phenyl]methyl] oxarnide]
[2]; [4]
  inhibition at 20 ppm: ≥ 80%

## N#CCCN(CCC#N)C(=O)C(=O)Nc1ccc(-c2noc(C(F)(F)F)n2)cc1 [Compound 4.18, N′,N′-bis(2-cyanoethyl)-N-[4-[5-(trifluoromethyl)-1,2,4-oxadiazol-3-yl]phenyl]oxamide]
[1]; [3]
  pest or weed control at 200 ppm: ≥ 80%

## CON(Cc1ccc(-c2noc(C(F)(F)F)n2)cc1)C(=O)C(=O)NC1CCCCC1 [Compound 4.63, N-cyclohexyl-N′-methoxy-N′-[[4-[5-(trifluoromethyl)-1,2,4-oxadiazol-3-yl]phenyl]methyl] oxamide]
[1]; [3]
  pest or weed control at 200 ppm: ≥ 80%
[2]; [4]
  inhibition at 20 ppm: ≥ 80%

## CCCC(=O)C(=O)N(Cc1ccc(-c2noc(C(F)(F)F)n2)cc1)OCc1ccc(Cl)cc1 [Compound 1.24, N-[(4-chlorophenyl)methoxy]-2-oxo-N-[[4-[5-(trifluoromethyl)-1,2,4-oxadiazol-3-yl]phenyl]methyl]pentanamide]
[2]; [4]
  inhibition at 20 ppm: ≥ 80%

## CO/N=C(\C#N)C(=O)N(Cc1ccc(-c2noc(C(F)(F)F)n2)cc1)C1CC1 [Compound 2.15, (1E)-2-[cyclopropyl-[[4-[5-(trifluoromethyl)-1,2,4-oxadiazol-3-yl]phenyl]methyl]amino]-N-methoxy-2-oxo-acetimidoyl cyanide]
[1]
  pest or weed control at 200 ppm: ≥ 80%
[2]
  inhibition at 20 ppm: ≥ 80%

## C=CCNC(=O)C(=O)NCc1ccc(-c2noc(C(F)(F)F)n2)cc1 [Compound 4.57, N-allyl-N′-[[4-[5-(trifluoromethyl)-1,2,4-oxadiazol-3-yl]phenyl]methyl] oxamide]
[1]; [3]
  pest or weed control at 200 ppm: ≥ 80%
[2]; [4]
  inhibition at 20 ppm: ≥ 80%

## CN(C(=O)C(=O)Nc1ccc(-c2noc(C(F)(F)F)n2)cc1)C1CCN(C(=O)OC(C)(C)C)C1 (centres unmarked) [Compound 4.22, tert-butyl 3-[methyl-[2-oxo-2-[4-[5-(trifluoromethyl)-1,2,4-oxadiazol-3-yl]anilino]acetyl]amino] pyrrolidine-1-carboxylate]
[1]; [3]
  pest or weed control at 200 ppm: ≥ 80%

## CC(=O)C(=O)NCc1ccc(-c2noc(C(F)(F)F)n2)cc1Cl [Compound 1.60, N-[[2-chloro-4-[5-(trifluoromethyl)-1,2,4-oxadiazol-3-yl]phenyl]methyl]-2-oxo-propanamide]
[2]; [4]
  inhibition at 20 ppm: ≥ 80%

## CN(C)C(=O)C(=O)N(Cc1ccc(-c2noc(C(F)(F)F)n2)cc1)OCC=C(Cl)Cl [Compound 4.31, N′-(3,3-dichloroallyloxy)-N,N-dimethyl-N′-[[4-[5-(trifluoromethyl)-1,2,4-oxadiazol-3-yl]phenyl]methyl] oxamide]
[1]; [3]
  pest or weed control at 200 ppm: ≥ 80%
[2]; [4]
  inhibition at 20 ppm: ≥ 80%

## CC(=O)C(=O)NCc1ccc(-c2noc(C(F)(F)F)n2)cn1 [Compound 1.28, 2-oxo-N-[[5-[5-(trifluoromethyl)-1,2,4-oxadiazol-3-yl]-2-pyridyl]methyl]propanamide]
[2]; [4]
  inhibition at 20 ppm: ≥ 80%

## CCCC(=O)C(=O)N(Cc1ccc(-c2noc(C(F)(F)F)n2)cc1)OCC=C(Cl)Cl [Compound 1.23, N-(3,3-dichloro-allyloxy)-2-oxo-N-[[4-[5-(trifluoromethyl)-1,2,4-oxadiazol-3-yl]phenyl]methyl]pentanamide]
[2]; [4]
  inhibition at 20 ppm: ≥ 80%

## O=C(Nc1ccc(-c2noc(C(F)(F)F)n2)cc1)C(=O)N(Cc1ccc2c(c1)OCO2)CC1OCCO1 [Compound 4.16, N′-(1,3-benzodioxol-5-ylmethyl)-N′-(1,3-dioxolan-2-ylmethyl)-N-[4-[5-(trifluoromethyl)-1,2,4-oxadiazol-3-yl]phenyl]oxamide]
[2]; [4]
  inhibition at 20 ppm: ≥ 80%

## CCCON(Cc1ccc(-c2noc(C(F)(F)F)n2)cc1)C(=O)C(=O)CCC [Compound 1.7, 2-oxo-N-propoxy-N-[[4-[5-(trifluoromethyl)-1,2,4-oxadiazol-3-yl]phenyl]methyl]pentanamide]
[2]; [4]
  inhibition at 20 ppm: ≥ 80%

## CCCC(=O)C(=O)N(Cc1ccc(-c2noc(C(F)(F)F)n2)cc1)C(C)CC (centres unmarked) [Compound 1.11, 2-oxo-N-sec-butyl-N-[[4-[5-(trifluoromethyl)-1,2,4-oxadiazol-3-yl]phenyl]methyl]pentanamide]
[2]; [4]
  inhibition at 20 ppm: ≥ 80%
